From US11583555B2, “Genetic re-engineering of immune cells to improve metabolic fitness for immunotherapy” (University of Pittsburgh—Of the Commonwealth System of …, priority 2016, dated 2023)

Key:
Type in all cases: in vivo
Akt = Akt inhibitor treatment of B16-bearing mice, PGC1α levels and mitochondrial mass of CD8^+ T cells; conditions: short-term treatment (72 h)
Protocol: FIGS. 11A-11H. Intratumoral T cell mitochondrial biogenesis is repressed by chronic Akt-mediated repression of PGC1α (A) Flow cytogram (left) and tabulated data (right) of PGC1α intracellular staining in CD8^+ T cells isolated from nondraining or draining LNs or TIL preparations from B16 or MC38 bearing mice. Shaded histogram indicates isotype control. (B) Flow cytogram of PGC1α expression in CTV-labeled, naïve OT-I T cells adoptively transferred into B16^OVA bearing mice for 72 h. Tabulation for multiple experiments is to the right. (C) Flow cytogram of cytokine production of congenically mismitached WT OT-I T cells transferred into B16^OVA-bearing or VV^OVA-infected mice for 96 h, then restimulated with SIINFEKL peptide. (D) Representative and tabulated phospho-Akt (S473) and phospho-Foxo1 (T24)/3a(T32) staining of the indicated cell populations in mice bearing 14-day B16 tumors. MFI is reported. (E) Representative flow cytogram and tabulated data indicating PGC1α staining in pAkt low or high cells. (F) MFI of pAkt staining in naïve OT-I T cells, or OT-I T cells transferred for 3 or 6 days into a B16^OVA-bearing or VV^OVA infected mouse. […] Results are representative of 5 (A,B, D) 3 (C, E, G, H) or 2 (F) independent experiments. *, p<0.05, **p<0.01, ***p<0.001 by unpaired t-test (A, F, G, H) or paired t-test (D, E, G, H). ***p<0.001 by two-way ANOVA. Error bars indicate s.e.m. […]

[1] = tested on: tumor infiltrating T cells; assay: m-divi-1 treatment of tumor-bearing mice after OT-I adoptive transfer, mitochondrial staining; conditions: tumor-bearing mice treated 24 h after adoptive transfer
Protocol: FIGS. 5A-5E. T cell mitochondrial dysfunction is induced upon entry into the tumor microenvironment. (A) Representative flow cytogram and tabulated data of LN and TIL of naïve, CTV-labeled, OT-I (Thy 1.1^+) CD8^+ T cells transferred into B16^OVA-bearing mice (5-7 mm tumors), or the spleens of the same progenitor cells transferred into B6 mice infected with 1×10^6 PFU VV^OVA for 72 h. Cells were stained with MitoTracker Deep Red FM. (B) As in A, but with the mitochondrial membrane potential dye TMRE. (C) As in A, but with the cellular ROS indicator DCFDA. (D) As in A, but cells were permeabilized and stained intracellularly for LC3B. (E) Representative data from experiments as in A, but some mice received mitophagy inhibitor m-divi-1. Results represent the mean of three or four independent experiments, with n=7-9 mice per group. **p<0.01, ***p<0.001, ***p<0.0001 by two-way ANOVA. Error bars indicate s.e.m.
Single-cell metabolic capacity was assayed by flow cytometry. Specifically, 2-NBD-glucose (Cayman Chemical) and MitoTracker FM dyes (ThermoFisher) were utilized to assay the propensity of cells to take up glucose or generate intermediates via their mitochondria. […]
As mitochondrial depolarization can lead to autophagy, it was determined whether mitophagy may be mediating the loss of mitochondria in tumor-infiltrating T cells.

[2] = tested on: tumor-infiltrating Treg cells; assay: Treg depletion with diphtheria toxin in B16-bearing Foxp3^DTR.GFP mice; conditions: 3 days diphtheria toxin

## O=c1[nH]c2ccccc2n1C1CCN(Cc2ccc(-c3nc4cc5[nH]cnc5cc4nc3-c3ccccc3)cc2)CC1 [Akt inhibitor, Akt inhibitor VIII]
Akt
  PGC1α and mitochondrial sufficiency (metabolically suppressive phenotype): partial rescue of the metabolically suppressive phenotype

## COc1cc(-n2c(=S)[nH]c3ccccc3c2=O)c(Cl)cc1Cl [m-divi-1]
[1]
  mitochondrial staining in tumor infiltrating T cells: failed to improve mitochondrial staining

## diphtheria toxin
[2]
  CD8^+ T cell MitoTracker FM staining: no significant increases in CD8^+ T cell MitoTracker FM staining
  depletion of tumor-infiltrating Treg cells: near complete depletion of tumor-infiltrating Treg cells
